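48-hour exposure; five concentrations; linearly interpolated endpoints. GI50 = concentration required for 50% inhibition of growth. TGI is the concentration that stops growth completely.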
Columns and labels:
Assay in all cases: inhibition of tumour cell growth, NCI panel, 48 h
MDA-MB-468 breast = test system: MDA-MB-468 breast
MDA-MB-231 breast = test system: MDA-MB-231 breast
NCI-H522 lung = test system: NCI-H522 lung
UO-31 renal = test system: UO-31 renal
RPMI-8226 leukemia = test system: RPMI-8226 leukemia
HOP-62 NSCLC = test system: HOP-62 NSCLC
HCT-15 colon = test system: HCT-15 colon
U251 CNS = test system: U251 CNS
HL-60(TB) leukemia = test system: HL-60(TB) leukemia
NCI-H226 lung = test system: NCI-H226 lung
PC-3 prostate = test system: PC-3 prostate
DU-145 prostate = test system: DU-145 prostate
KM12 colon = test system: KM12 colon
HCC-2998 colon = test system: HCC-2998 colon
HS 578T breast = test system: HS 578T breast
MCF7 breast = test system: MCF7 breast
MOLT-4 leukemia = test system: MOLT-4 leukemia
RXF 393 renal = test system: RXF 393 renal
NCI/ADR-RES ovarian = test system: NCI/ADR-RES ovarian
NCI-H460 lung = test system: NCI-H460 lung
SF-268 CNS = test system: SF-268 CNS
HT29 colon = test system: HT29 colon
SK-MEL-28 melanoma = test system: SK-MEL-28 melanoma
EKVX NSCLC = test system: EKVX NSCLC
CAKI-1 renal = test system: CAKI-1 renal
SF-539 CNS = test system: SF-539 CNS
SF-295 CNS = test system: SF-295 CNS
SNB-19 CNS = test system: SNB-19 CNS
SK-MEL-2 melanoma = test system: SK-MEL-2 melanoma
SNB-75 CNS = test system: SNB-75 CNS
SW-620 colon = test system: SW-620 colon
BT-549 breast = test system: BT-549 breast
SN12C renal = test system: SN12C renal
MALME-3M melanoma = test system: MALME-3M melanoma
TK-10 renal = test system: TK-10 renal
OVCAR-8 ovarian = test system: OVCAR-8 ovarian
ACHN renal = test system: ACHN renal
COLO 205 colon = test system: COLO 205 colon
A549 NSCLC = test system: A549 NSCLC
CCRF-CEM leukemia = test system: CCRF-CEM leukemia
IGROV1 ovarian = test system: IGROV1 ovarian
A498 renal = test system: A498 renal
SR leukemia = test system: SR leukemia
OVCAR-4 ovarian = test system: OVCAR-4 ovarian
M14 melanoma = test system: M14 melanoma
SK-MEL-5 melanoma = test system: SK-MEL-5 melanoma
K-562 leukemia = test system: K-562 leukemia
MDA-MB-435 = test system: MDA-MB-435
NCI-H23 lung = test system: NCI-H23 lung
UACC-257 melanoma = test system: UACC-257 melanoma
OVCAR-3 ovarian = test system: OVCAR-3 ovarian
T-47D breast = test system: T-47D breast
786-0 renal = test system: 786-0 renal
OVCAR-5 ovarian = test system: OVCAR-5 ovarian
HOP-92 NSCLC = test system: HOP-92 NSCLC
UACC-62 melanoma = test system: UACC-62 melanoma
SK-OV-3 ovarian = test system: SK-OV-3 ovarian
LOX IMVI melanoma = test system: LOX IMVI melanoma

Compound: CN1CCN(c2ccc(C(=O)/C=C/c3cc(C(F)(F)F)ccc3Cl)cc2)CC1
- GI50 (MDA-MB-468 breast): 1.59 µM
- TGI (MDA-MB-468 breast): 3.48 µM
- GI50 (MDA-MB-231 breast): 2.81 µM
- TGI (MDA-MB-231 breast): 8.01 µM
- GI50 (NCI-H522 lung): 12.3 µM
- TGI (NCI-H522 lung): 27.9 µM
- GI50 (UO-31 renal): 4.09 µM
- TGI (UO-31 renal): 16.4 µM
- GI50 (RPMI-8226 leukemia): 1.77 µM
- TGI (RPMI-8226 leukemia): 4.68 µM
- GI50 (HOP-62 NSCLC): 13.9 µM
- TGI (HOP-62 NSCLC): 29.7 µM
- GI50 (HCT-15 colon): 1.87 µM
- TGI (HCT-15 colon): 3.78 µM
- GI50 (U251 CNS): 2.1 µM
- TGI (U251 CNS): 4.85 µM
- GI50 (HL-60(TB) leukemia): 2.14 µM
- TGI (HL-60(TB) leukemia): 7.53 µM
- GI50 (NCI-H226 lung): 4.55 µM
- TGI (NCI-H226 lung): 18.6 µM
- GI50 (PC-3 prostate): 3.06 µM
- TGI (PC-3 prostate): 13.2 µM
- GI50 (DU-145 prostate): 5.5 µM
- TGI (DU-145 prostate): 20.5 µM
- GI50 (KM12 colon): 3.1 µM
- TGI (KM12 colon): 9.83 µM
- GI50 (HCC-2998 colon): 1.81 µM
- TGI (HCC-2998 colon): 3.2 µM
- GI50 (HS 578T breast): 5.48 µM
- TGI (HS 578T breast): 28.7 µM
- GI50 (MCF7 breast): 1.42 µM
- TGI (MCF7 breast): 2.94 µM
- GI50 (MOLT-4 leukemia): 4.94 µM
- TGI (MOLT-4 leukemia): 93.6 µM
- GI50 (RXF 393 renal): 2.16 µM
- TGI (RXF 393 renal): 11.1 µM
- GI50 (NCI/ADR-RES ovarian): 3.5 µM
- TGI (NCI/ADR-RES ovarian): 12.8 µM
- GI50 (NCI-H460 lung): 8.73 µM
- TGI (NCI-H460 lung): 22.3 µM
- GI50 (SF-268 CNS): 14.1 µM
- TGI (SF-268 CNS): 37.7 µM
- GI50 (HT29 colon): 2.01 µM
- TGI (HT29 colon): 5.02 µM
- GI50 (SK-MEL-28 melanoma): 10.5 µM
- TGI (SK-MEL-28 melanoma): 22.3 µM
- GI50 (EKVX NSCLC): 5.94 µM
- TGI (EKVX NSCLC): 19 µM
- GI50 (CAKI-1 renal): 8.23 µM
- TGI (CAKI-1 renal): 21.2 µM
- GI50 (SF-539 CNS): 1.92 µM
- TGI (SF-539 CNS): 4.38 µM
- GI50 (SF-295 CNS): 6.89 µM
- TGI (SF-295 CNS): 19.8 µM
- GI50 (SNB-19 CNS): 8.95 µM
- TGI (SNB-19 CNS): 21 µM
- GI50 (SK-MEL-2 melanoma): 17 µM
- TGI (SK-MEL-2 melanoma): 32 µM
- GI50 (SNB-75 CNS): 2.66 µM
- TGI (SNB-75 CNS): 15.6 µM
- GI50 (SW-620 colon): 2.08 µM
- TGI (SW-620 colon): 4.02 µM
- GI50 (BT-549 breast): 5.42 µM
- TGI (BT-549 breast): 20.4 µM
- GI50 (SN12C renal): 4.32 µM
- TGI (SN12C renal): 16.4 µM
- GI50 (MALME-3M melanoma): 11.2 µM
- TGI (MALME-3M melanoma): 23.4 µM
- GI50 (TK-10 renal): 13.5 µM
- TGI (TK-10 renal): 29 µM
- GI50 (OVCAR-8 ovarian): 9.04 µM
- TGI (OVCAR-8 ovarian): 26.2 µM
- GI50 (ACHN renal): 4.92 µM
- TGI (ACHN renal): 16.8 µM
- GI50 (COLO 205 colon): 3.48 µM
- TGI (COLO 205 colon): 10.7 µM
- GI50 (A549 NSCLC): 3.65 µM
- TGI (A549 NSCLC): 14.8 µM
- GI50 (CCRF-CEM leukemia): 2.17 µM
- TGI (CCRF-CEM leukemia): 5.93 µM
- GI50 (IGROV1 ovarian): 3.33 µM
- TGI (IGROV1 ovarian): 13 µM
- GI50 (A498 renal): 17.4 µM
- TGI (A498 renal): 32 µM
- GI50 (SR leukemia): > 100 µM
- TGI (SR leukemia): > 100 µM
- GI50 (OVCAR-4 ovarian): 10.7 µM
- TGI (OVCAR-4 ovarian): 29 µM
- GI50 (M14 melanoma): 3.13 µM
- TGI (M14 melanoma): 10.9 µM
- GI50 (SK-MEL-5 melanoma): 3.71 µM
- TGI (SK-MEL-5 melanoma): 15 µM
- GI50 (K-562 leukemia): 2.17 µM
- TGI (K-562 leukemia): > 100 µM
- GI50 (MDA-MB-435): 2.14 µM
- TGI (MDA-MB-435): 5.06 µM
- GI50 (NCI-H23 lung): 3.89 µM
- TGI (NCI-H23 lung): 14.2 µM
- GI50 (UACC-257 melanoma): 10.4 µM
- TGI (UACC-257 melanoma): 23.7 µM
- GI50 (OVCAR-3 ovarian): 4.08 µM
- TGI (OVCAR-3 ovarian): 14.4 µM
- GI50 (T-47D breast): 12.3 µM
- TGI (T-47D breast): 39.8 µM
- GI50 (786-0 renal): 2.22 µM
- TGI (786-0 renal): 5.74 µM
- GI50 (OVCAR-5 ovarian): 13.9 µM
- TGI (OVCAR-5 ovarian): 26.9 µM
- GI50 (HOP-92 NSCLC): 3.79 µM
- TGI (HOP-92 NSCLC): 18.1 µM
- GI50 (UACC-62 melanoma): 10.9 µM
- TGI (UACC-62 melanoma): 22.8 µM
- GI50 (SK-OV-3 ovarian): 5.66 µM
- TGI (SK-OV-3 ovarian): 18.8 µM
- GI50 (LOX IMVI melanoma): 1.63 µM
- TGI (LOX IMVI melanoma): 2.99 µM
